# Data: patent publication US20060275365A1, “Immediate-release and high-drug-load pharmaceutical formulations of micronised (4-chlorophenyl) [4-(4-pyridylmethyl)phthalazin-1-yl] and salts thereof” (priority 2005, published 2006)
# Tests used:
# [1] = test system: VEGFR kinases; conditions: not dependent on a specific ligand; cited from earlier work
# [2] = Particle size volume distribution by laser diffraction (Sympatec Helos); format: physicochemical; conditions: spherical particles presumed
# Source text: When used herein, the term “micronised” is intended to mean that the particle size distribution is so that at least 90% of the particles have a particle diameter of less than 30 μm (calculated from the volume distribution curve under the presumption of spherical particles), i.e. a d90 value of at the most 30 μm. It is well-known to the skilled person that parameters used to describe a given particle size distribution may vary considerably dependent on the specific equipment and settings used. Therefore, it is important to note that whenever the terms “particle size distribution”, “particle diameter”, “d50”, “d90”, “d95”, “d99”, etc. are used herein it should be understood that the specific values or ranges used in connection therewith are always meant to be determined from the volume distribution curve under the presumption of spherical particles using laser diffraction and the conditions set forth in the section entitled “Determination of particle size distribution” herein.
# Determination of the particle size volume distribution of pynasunate was performed by laser diffraction using the following equipment and settings: […]
compound,measurement,setting,value
Clc1ccc(Nc2nnc(Cc3ccncc3)c3ccccc23)cc1 [(4-chlorophenyl)[4-(4-pyridylmethyl)-phthalazin-1-yl]],inhibition of VEGFR kinases,[1],inhibitor of all three VEGFR kinases
"Clc1ccc(Nc2nnc(Cc3ccncc3)c3ccccc23)cc1 [pynasunate, (4-chlorophenyl)[4-(4-pyridylmethyl)-phthalazin-1-yl]ammonium hydrogen succinate]",d50 particle size diameter,[2],6 μm
same,d90 particle size diameter,[2],15 μm
